Laboratory results: patent US20250129095A1, “ANNULATED 2-AMINO-3-CYANO THIOPHENES AND DERIVATIVES FOR THE TREATMENT OF CANCER” (Boehringer Ingelheim Int'l GmbH Corp., priority 2021, published 2025)

How the values were obtained:
[1] = Caco-2 assay; assay type: in vitro ADME; details: human, 10 μM test compound, pH 7.4; for Papp A→B at 90 min, 10 μM: Caco-2, apical to basolateral (a-b) permeability, read-out: Caco PappAB; for efflux ratio at 90 min, 10 μM: Caco-2 efflux ratio PappBA/PappAB, read-out: Caco ER
Excerpt: The assay provides information on the potential of a compound to pass the cell membrane, on the extent of oral absorption as well as on whether the compound is actively transported by uptake and/or efflux transporters. Permeability measurements across polarized, confluent Caco-2 cell monolayers grown on permeable filter supports (Corning, catalog #3391) are used. […] The receiver and donor compartments contain 0.25% bovine serum albumine (BSA) in assay buffer. Passive diffusion and/or active transport of compounds across the monolayer is measured in both apical to basolateral (a-b) and basolateral to apical (b-a) direction. a-b permeability (PappAB) represents drug absorption from the intestine into the blood and b-a permeability (PappBA) drug secretion from the blood back into the intestine via both passive permeability as well as active transport mechanisms mediated by efflux and uptake transporters that are expressed on the Caco-2 cells. After a pre-incubation of 25-30 min at 37° C., at predefined time points (0, 30, 60 and 90 min), samples were taken from the receiver and donor compartment, respectively.
Concentrations of test compounds in samples were measured by HPLC/MS/MS, samples from the donor compartment were diluted 1:50 (v:v) with assay buffer, samples from receiver compartment were measured without dilution.
Apparent permeabilities in a-b (PappAB) and b-a (PappBA) directions are calculated according to the formula:
[formula] • Vrec [mL]: buffer volume in receiver compartment • Cdon [pmol/mL]: concentration of test compound in donor compartment at t=0 • ΔCrec: difference between concentrations of test compound in receiver compartment at start and end of incubation time • Δt: Incubation time • Vrec·ΔCrec/Δt [[…]]: Amount of compound transferred to receiver compartment per time • A [cm^2]: filter surface
Caco-2 efflux ratios (ER) are calculated as the ratio of PappBA/PappAB.

[2] = system: MKN1 cells; test: MKN1 CTG proliferation assay (120 h) (gastric cancer, wt amplified), assay 2; assay type: cell-based; details: Homo sapiens, MKN-1
Description: (§1) SAS cells (JCRB0260) are dispensed into 384-well plates, flat and clear bottom (Greiner, PNr. 781091) at a density of 300 cells per well in 60 μL DMEM:F12 (Gibco 31330-038)+10% Fetal Calf Serum (HyClone, PNr.: SH30084.03) and incubated at 37° C. in a CO2 incubator overnight The next day, compounds (10 mM stock in DMSO) are added with the ECHO acoustic liquid handler system (Beckman Coulter), including DMSO controls. Plates are incubated for 120 h, and cell viability is measured using CellTiter-Glo luminescent cell viability reagent (Promega product code G7570). Viability (stated as percent of control) is defined as relative luminescence units RLU of each well divided by the RLU of cells in DMSO controls.
(§2) MKN1 cells (JCRB0252) are dispensed into white 384-well plates, flat and white bottom (Perkin Elmer, 6007680) at a density of 500 cells per well in 40 μl RPMI (Gibco, PNr.: 21875034)+10% FCS (HyClone, PNr.: SH30084.03) (assay 1) or into black 384-well plates, flat and clear bottom (Greiner, PNr. 781091) at a density of 200 cells per well in 60 μl RPMI-1640 (Gibco #A10491)+10% FCS (HyClone, PNr.: SH30084.03)+PenStrep (Gibco, PNr.15140-122) (assay 2). […] Compounds (10 mM stock in DMSO) are added at logarithmic dose series using the HP Digital Dispenser D300 (Tecan) (assay 1) or the ECHO acoustic liquid handler system (Beckman Coulter) (assay 2), including DMSO controls and normalizing for added DMSO. Plates are incubated for 120 h, and cell viability is measured using CellTiter-Glo luminescent cell viability reagent (Promega product code G7570). Viability (stated as percent of control) is defined as relative luminescence units RLU of each well divided by the RLU of cells in DMSO controls.

[3] = system: GP2D cells; test: GP2D proliferation assay (120 h) (colorectal cancer, G12D); assay type: cell-based
Description: GP2D cells (ATCC No. CRL-5807) are dispensed into white 384-well plates, flat and white bottom (Perkin Elmer, 6007680) at a density of 500 cells per well in 40 μl DMEM (Sigma, D6429)+1× GlutaMAX (Gibco, 35050038)+10% FCS (fetal calf serum). […] Compounds (10 mM stock in DMSO) are added at logarithmic dose series using the HP Digital Dispenser D300 (Tecan), including DMSO controls and normalizing for added DMSO. For the TO time point measurement, untreated cells are analyzed at the time of compound addition. Plates are incubated for 120 h, and cell viability is measured using CellTiter-Glo luminescent cell viability reagent (Promega product code G7570). Viability (stated as percent of control) is defined as relative luminescence units RLU of each well divided by the RLU of cells in DMSO controls.

[4] = system: MKN1 cells; test: MKN1 CTG proliferation assay (120 h) (gastric cancer, wt amplified), assay 1; assay type: cell-based; details: Homo sapiens, MKN-1
Description: as §1, §2

Row | Compound | Papp A→B at 90 min, 10 μM [1] [×10⁻⁶ cm/s] | efflux ratio at 90 min, 10 μM [1] | IC50 [2] [nM] | IC50 [3] [nM] | IC50 [4] [nM]
1 | C[C@H](Oc1cc(OCCO)nc(-c2noc3c2CCC[C@@]32CCCc3sc(N)c(C#N)c32)n1)[C@@H]1CCCN1C [II-6] | 1.2 | 20.8 | 90 | – | –
2 | C[C@H](Oc1cc(Oc2nccs2)nc(-c2noc3c2CCC[C@@]32CCCc3sc(N)c(C#N)c32)n1)[C@@H]1CCCN1C [II-2] | – | 0.5 | – | – | –
3 | C[C@H](Oc1cc(Nc2ncccn2)nc(-c2noc3c2CCC[C@@]32CCCc3sc(N)c(C#N)c32)n1)[C@@H]1CCCN1C [II-17] | 3.9 | 5 | – | 363 | –
4 | C[C@H](Oc1cc(Nc2ccccn2)nc(-c2noc3c2CCC[C@@]32CCCc3sc(N)c(C#N)c32)n1)[C@@H]1CCCN1C [II-16] | – | 3.1 | – | – | –
5 | C[C@H](Oc1cc(O[C@H]2CCOC2)nc(-c2noc3c2CCC[C@@]32CCCc3sc(N)c(C#N)c32)n1)[C@@H]1CCCN1C [II-4] | 8.6 | 3.7 | – | 178 | –
6 | C[C@H](Oc1cc(O[C@@H]2CNC[C@@H]2F)nc(-c2noc3c2CCC[C@@]32CCCc3sc(N)c(C#N)c32)n1)[C@@H]1CCCN1C [II-29] | 0.9 | 25.5 | – | 9 | –
7 | C[C@H](Oc1cc(O[C@@H]2CNC2(C)C)nc(-c2noc3c2CCC[C@@]32CCCc3sc(N)c(C#N)c32)n1)[C@@H]1CCCN1C [II-9] | 0.2 | 132 | 129 | – | –
8 | CO[C@@H]1C[C@@H]([C@H](C)Oc2cc(O[C@@H]3CNC3(C)C)nc(-c3noc4c3CCC[C@@]43CCCc4sc(N)c(C#N)c43)n2)N(C)C1 [II-30] | 0.2 | 125 | – | – | 223
9 | C[C@H](Oc1cc(Nc2cccnn2)nc(-c2noc3c2CCC[C@@]32CCCc3sc(N)c(C#N)c32)n1)[C@@H]1CCCN1C [II-18] | 1.4 | 17.9 | – | – | –
10 | C[C@H](Oc1cc(Oc2cncnc2)nc(-c2noc3c2CCC[C@@]32CCCc3sc(N)c(C#N)c32)n1)[C@@H]1CCCN1C [II-1] | 17 | 1.5 | 43 | 10 | –
11 | C[C@H](Oc1cc(OCC2(N(C)C)COC2)nc(-c2noc3c2CCC[C@@]32CCCc3sc(N)c(C#N)c32)n1)[C@@H]1CCCN1C [II-22] | 2.6 | 15.5 | – | 5 | 33
12 | C[C@H](Oc1cc(O[C@@H]2CNC2(C)C)nc(-c2noc3c2CCC[C@@]32CCCc3sc(N)c(C#N)c32)n1)[C@@H]1C[C@@H](F)CN1C [II-31] | 0.8 | 50.7 | – | 1 | 357
13 | COc1c(OCC2(N(C)C)COC2)nc(-c2noc3c2CCC[C@@]32CCCc3sc(N)c(C#N)c32)nc1O[C@@H](C)[C@@H]1CCCN1C [II-25] | 2.5 | 13.6 | – | 17 | –
14 | C[C@H](Oc1cc(N(C)C)nc(-c2noc3c2CCC[C@@]32CCCc3sc(N)c(C#N)c32)n1)[C@@H]1CCCN1C [II-10] | 7.6 | 3 | – | – | –
15 | COCCOc1cc(O[C@@H](C)[C@@H]2CCCN2C)nc(-c2noc3c2CCC[C@@]32CCCc3sc(N)c(C#N)c32)n1 [II-5] | 14 | 1.4 | – | – | –
16 | C[C@H](Oc1cc(Nc2ncco2)nc(-c2noc3c2CCC[C@@]32CCCc3sc(N)c(C#N)c32)n1)[C@@H]1CCCN1C [II-13] | 5.2 | 3.1 | – | – | –
17 | C[C@H](Oc1cc(Nc2ccccn2)nc(-c2onc3c2CCC[C@@]32CCCc3sc(N)c(C#N)c32)n1)[C@@H]1CCCN1C [Example I-6] | – | 2.5 | – | – | –
18 | C[C@H](Oc1cc(Oc2cncnc2)nc(-c2onc3c2CCC[C@@]32CCCc3sc(N)c(C#N)c32)n1)[C@@H]1CCCN1C [Example I-3] | 18 | 1.3 | – | 12 | –
19 | C[C@H]1CN(C)CCCN1c1cc(O[C@@H]2CNC2(C)C)nc(-c2noc3c2CCC[C@@]32CCCc3sc(N)c(C#N)c32)n1 [II-28] | – | – | – | 20 | –
20 | C[C@H](Oc1cc(Oc2cccnc2)nc(-c2onc3c2CCC[C@@]32CCCc3sc(N)c(C#N)c32)n1)[C@@H]1CCCN1C [Example I-2] | – | – | 109 | – | –
21 | C[C@H](Oc1cc(N(C)CCN(C)C)nc(-c2noc3c2CCC[C@@]32CCCc3sc(N)c(C#N)c32)n1)[C@@H]1CCCN1C [II-20] | 0.8 | 38 | – | – | –
22 | C[C@H](Oc1cc(OCC2(N(C)C)COC2)nc(-c2onc3c2CCC[C@@]32CCCc3sc(N)c(C#N)c32)n1)[C@@H]1CCCN1C [Example I-8] | – | – | 108 | 11 | –
23 | C[C@H](Oc1cc(OCC2(N(C)C)CC2)nc(-c2noc3c2CCC[C@@]32CCCc3sc(N)c(C#N)c32)n1)[C@@H]1CCCN1C [II-21] | – | 1.4 | – | 8 | –
24 | COC[C@H](C)Nc1cc(O[C@@H](C)[C@@H]2CCCN2C)nc(-c2onc3c2CCC[C@@]32CCCc3sc(N)c(C#N)c32)n1 [Example I-5] | 4.3 | 7.7 | – | – | –
25 | C[C@H](Oc1cc(Nc2ccncn2)nc(-c2noc3c2CCC[C@@]32CCCc3sc(N)c(C#N)c32)n1)[C@@H]1CCCN1C [II-15] | 2 | 14.5 | – | – | –
